Test [1] in a line: Antirachitogenic increase in tibia ash in chicks on vitamin D-deficient diet. The format is in vivo, chick (White Leghorn cockerels). The note with it: 27 ng, orally, 21 consecutive days. How it is done:
**Oneday-old White Leghorn cockerels were placed on a vitamin Ddeficient
diet which contained 1% calcium and 0.7% phosphorus and were housed under
ultravioletfree lighting (General Electric F40G0 gold fluorescent lights)
The test compound was dissolved in propylene glycol and administered
orally in a volume of 0.2 ml/day for 21 consecutive days. Controls were
treated with vehicle alone. Chicks were autopsied on the day after the […]

In test [2] the test system is HL-60 cells. Kind of test: Differentiation of HL-60 cells by nitroblue tetrazolium (NBT) reduction. The format is cell-based, human (patient). The following applies: Homo sapiens, 96 h; HL-60 cells, NBT test; read-out: HL-60 Test Differentiation NBT Test ED50. How it is done:
Cultures of HL-60 cells were established in the absence (control) or presence of various concentrations of the test compound. […] Proliferation was assessed by directly enumerating the increased number of tumor cells resulting from incubation. Viability was determined by dye exclusion technique to learn whether any of the compounds were lethal to cultured HL-60 cells. Cellular differentiation was evaluated by determining the number of cells which had acquired the enzymes necessary to support a respiratory burst and the functional ability to phagocytose (bind/internalize) particulate material from their environment; both activities being characteristic of mature macrophages and granulocytes,
Experimental compounds were dissolved in sufficient ethanol to yield stock solutions of 1×10^-2 molar. Reduced lighting was employed when working with compounds and stock solutions were stored in the dark at -20° in an argon atmosphere. Compounds were diluted with tissue culture medium and added to flasks containing HL-60 cells to achieve the final concentrations described in each experiment.
The promyelocytic (HL-60) tumor cell line was derived from a patient with acute promyelocytic leukemia. HL-60 cells were maintained in liquid culture by serial weekly passage in tissue culture medium. In any experiment, three replicate flasks were incubated without compound (control) or in the presence of varying concentrations of compound. […]
Quantitation of differentiated cells was done by the biochemical method of nitroblue tetrazolium (NBT) reduction. Sufficient cells were pooled from replicate cultures, centrifuged at 220×g, washed once with serum-free tissue culture medium, and resuspended to 1×10^6 cells per ml in Ca^++ --Mg^++ -deficient phosphate buffered saline (prepared by supplementing Ca^++ --Mg^++ -free phosphate buffered saline (PBS) to 10% v/v with heat-inactivated fetal bovine serum). Nitroblue tetrazolium was dissolved at 1 mg per ml in Ca^++ --Mg^++ -deficient PBS with gentle heating and mixing. Tetradecanoyl phorbol acetate (TPA) was dissolved at 1 mg per ml in ethanol and stored at -20° C. Just prior to use, a working solution of TPA was prepared by diluting the stock concentration 100-fold with Ca^++ --Mg^++ -deficient PBS. The test was done in 12×75 mm tubes by adding 0.5 ml Ca^++ --Mg^++ -deficient PBS, 1.0 ml of HL-60 cells, 0.5 ml of NBT solution, and 0.02 ml of the working TPA solution. After mixing, the tubes were incubated in a 37° water bath for 25 minutes then transferred to ice. Undifferentiated and differentiated cells present in any sample were determined microscopically by surveying 200-400 cells per sample or by cytofluorograph by surveying greater than 30,000 cells. Cells without pigmented granules (clear cells) were judged to be undifferentiated while those containing greater than 3 blue-black formazan granules were scored as differentiated. […] Results are expressed as the percentage of differentiated cells present in any sample as calculated according to the formula: [formula]

pEC50: −log10 of the molar value.

As to `C=C1/C(=C\C=C2/CCC[C@]3(C)[C@@H]([C@H](C)CCCC(C)(C)O)CC[C@@H]23)C[C@@H](O)C[C@@H]1O` [1α,25-Dihydroxycholecalciferol, reference compound], the “Antirachitogenic Increase in Tibia Ash in Chicks” value in test [1] was determined as 61%. Moreover, the pEC50 in test [2] was 7.92.

The record behind these values is US4594340A, “25,26-dehydro-1α,24R-dihydroxycholecalciferol and 25,26-dehydro-1α,24S-dihydroxycholecalciferol and the epimeric mixture” (Hoffmann-La Roche Inc., priority 1984, dated 1986).
